Laboratory results taken from article PMC10937199 (ESMO Open, 2024).

Experiments:
[1] = Peposertib plasma pharmacokinetics, Part A; format: in vivo, human; settings: Parts A and B
[2] = Food effect on peposertib pharmacokinetics, Part FE; format: in vivo, human; settings: after a single dose, sampling did not cover tmax
[3] = healthy volunteers; cited from earlier work
advanced solid tumors = assay: Best overall response per RECIST version 1.1, Part A; format: in vivo, human
[4] = 50-mg film-coated hot melt extrudate tablets; estimated; cited from earlier work
[5] = system: patients with advanced solid tumors; assay: Safety; format: in vivo, human; settings: Part FE
[6] = system: patients with advanced solid tumors; assay: Safety; format: in vivo, human; settings: Part B

COc1ccc([C@@H](O)c2cc(-c3ncnc4cc(N5CCOCC5)ccc34)c(F)cc2Cl)nn1 [Peposertib]
2/4: Serious TEAE: sepsis ([5]; 100 mg b.i.d.)
1 (25.0) n (%): IRR ([5]; 100 mg b.i.d., all grade) | Serious TEAE, peposertib related ([5]; 100 mg b.i.d., all grade) | Serious TEAE, treatment related ([5]; 100 mg b.i.d., all grade) | TEAE leading to death ([5]; 100 mg b.i.d., all grade) | Serious TEAE, peposertib related ([5]; 100 mg b.i.d., grade ≥3) | Serious TEAE, treatment related ([5]; 100 mg b.i.d., grade ≥3) | TEAE leading to death ([5]; 100 mg b.i.d., grade ≥3) | TEAE, peposertib related ([5]; 100 mg b.i.d., grade ≥3) | TEAE, treatment related ([5]; 100 mg b.i.d., grade ≥3)
3 (75.0) n (%): TEAE, peposertib related ([5]; 100 mg b.i.d., all grade) | TEAE, treatment related ([5]; 100 mg b.i.d., all grade) | TEAE ([5]; 100 mg b.i.d., grade ≥3)
17.2%: Best overall response of stable disease (SD) or non-CR/non-PD (advanced solid tumors; all dose levels)
5 (55.6%): Peposertib-related TEAE: fatigue ([5]; all dose levels)
75%: Increase in bioavailability versus capsules [4]
no patients: Patients with complete response (CR) or partial response (PR) (advanced solid tumors)
generally proportional to the dose: Peposertib exposure versus dose ([1]; across all dose levels after single or multiple (q.d. and b.i.d.) doses)
4 (100.0) n (%): TEAE ([5]; 100 mg b.i.d., all grade)
5 (100.0) n (%): TEAE ([5]; 200 mg b.i.d., all grade) | TEAE, peposertib related ([5]; 200 mg b.i.d., all grade) | TEAE, treatment related ([5]; 200 mg b.i.d., all grade)
2 (66.7) n (%): IRR ([6]; 100 mg q.d., all grade) | Serious TEAE ([6]; 100 mg q.d., all grade) | TEAE, peposertib related ([6]; 100 mg q.d., all grade) | Serious TEAE ([6]; 100 mg q.d., grade ≥3) | TEAE ([6]; 100 mg q.d., grade ≥3)
3 (100.0) n (%): TEAE ([6]; 100 mg q.d., all grade) | TEAE, treatment related ([6]; 100 mg q.d., all grade)
1 (33.3) n (%): Serious TEAE, treatment related ([6]; 100 mg q.d., all grade) | TEAE, radiotherapy related ([6]; 100 mg q.d., all grade) | Serious TEAE, treatment related ([6]; 100 mg q.d., grade ≥3) | TEAE, treatment related ([6]; 100 mg q.d., grade ≥3) | IRR ([6]; 150 mg q.d., all grade)
only a mild food effect: Food effect [3]
0 n (%): Immune-related AE ([5]; 100 mg b.i.d., all grade) | Treatment-related AE leading to death ([5]; 100 mg b.i.d., all grade) | IRR ([5]; 100 mg b.i.d., grade ≥3) | Immune-related AE ([5]; 100 mg b.i.d., grade ≥3) | Treatment-related AE leading to death ([5]; 100 mg b.i.d., grade ≥3) | Treatment-related AE leading to death ([5]; 200 mg b.i.d., all grade) | Treatment-related AE leading to death ([5]; 200 mg b.i.d., grade ≥3) | Immune-related AE ([6]; 100 mg q.d., all grade) | Serious TEAE, peposertib related ([6]; 100 mg q.d., all grade) | Serious TEAE, radiotherapy related ([6]; 100 mg q.d., all grade) | TEAEs leading to death ([6]; 100 mg q.d., all grade) | Treatment-related AE leading to death ([6]; 100 mg q.d., all grade) | IRR ([6]; 100 mg q.d., grade ≥3) | Immune-related AE ([6]; 100 mg q.d., grade ≥3) | Serious TEAE, peposertib related ([6]; 100 mg q.d., grade ≥3) | Serious TEAE, radiotherapy related ([6]; 100 mg q.d., grade ≥3) | TEAE, peposertib related ([6]; 100 mg q.d., grade ≥3) | TEAE, radiotherapy related ([6]; 100 mg q.d., grade ≥3) | TEAEs leading to death ([6]; 100 mg q.d., grade ≥3) | Treatment-related AE leading to death ([6]; 100 mg q.d., grade ≥3) | Immune-related AE ([6]; 150 mg q.d., all grade)
4 (44.4%): Discontinuation of all study treatments due to AEs ([5]; all dose levels) | Peposertib-related TEAE: diarrhea ([5]; all dose levels)
Some accumulation was observed: Accumulation ([1]; after q.d. and b.i.d. dosing)
1 (20.0) n (%): IRR ([5]; 200 mg b.i.d., all grade) | Serious TEAE, peposertib related ([5]; 200 mg b.i.d., all grade) | TEAE leading to death ([5]; 200 mg b.i.d., all grade) | IRR ([5]; 200 mg b.i.d., grade ≥3) | Serious TEAE, peposertib related ([5]; 200 mg b.i.d., grade ≥3) | TEAE leading to death ([5]; 200 mg b.i.d., grade ≥3)
2 (50.0) n (%): Serious TEAE ([5]; 100 mg b.i.d., all grade) | Serious TEAE ([5]; 100 mg b.i.d., grade ≥3)
food delayed peposertib Cmax: Effect of food on peposertib Cmax [2]
4 (80.0) n (%): TEAE ([5]; 200 mg b.i.d., grade ≥3) | TEAE, treatment related ([5]; 200 mg b.i.d., grade ≥3)
3 (60.0) n (%): Serious TEAE ([5]; 200 mg b.i.d., all grade) | Serious TEAE ([5]; 200 mg b.i.d., grade ≥3) | TEAE, peposertib related ([5]; 200 mg b.i.d., grade ≥3)
2 (40.0) n (%): Immune-related AE ([5]; 200 mg b.i.d., all grade) | Serious TEAE, treatment related ([5]; 200 mg b.i.d., all grade) | Immune-related AE ([5]; 200 mg b.i.d., grade ≥3) | Serious TEAE, treatment related ([5]; 200 mg b.i.d., grade ≥3)
